Data on eight compounds can be found in patent US20080125452A1, “Indolopyridines,Benzofuranopyridines and Benzothienopyridines” (ALTANA PHARMA AG, priority 2005, published 2008).

Data set [1] deals with RKO colon adenocarcinoma cells (RKOp27 induced). The data set can be described thus: Alamar Blue cell viability assay on RKOp27 cells arrested by Ponasterone A induced p27Kip1 expression (cell cycle specific mode of action). The format is cell-based. To be noted: Homo sapiens, cells arrested by ectopic p27Kip1 induced with 10 μM Ponasterone A, 72 hours incubation, read-out: IC50 RKO p27 induced. The protocol:
To determine the cell cycle specific mode of action, subclones of RKO colon adenocarcinoma cells (RKOp27 as described by Schmidt et al. in Oncogene 19, 2423-2429; 2000) are seeded into 96 well flat bottom plates at a density of 16000 cells per well in a volume of 50 μl per well in DMEM growth medium with 10% FCS containing 10 μM Ponasterone A. 24 hours after seeding the 50 μl each of the compound dilutions in DMEM medium are added into each well of the 96-well plate. Each compound dilution is tested as quadruplicates. Wells containing untreated control cells are filled with 50 μl DMEM medium containing 1% DMSO. The cells are then incubated with the substances for 72 hours at 37° C. in a humidified atmosphere containing 5% carbon dioxide. To determine the viability of the cells, 10 μl of an Alamar Blue solution (Biosource) are added and the fluorescence is measured at an extinction of 544 nm and an emission of 590 nm. For the calculation of the cell viability the emission value from untreated cells is set as 100% viability and the emission rates of treated cells are set in relation to the values of untreated cells. Viabilities are expressed as % values. Viability is compared of proliferating cells grown in the absence of the inducer Ponasterone A, versus viability of cells arrested by the expression of ectopic p27Kip1 induced by Ponasterone A.
Representative IC50 values for anti-proliferation/cytotoxicity determined in the aforementioned assays follow from the following table A, in which the numbers of the compound correspond to the numbers of the examples.

Some results are limits rather than exact numbers.

In turn, `COc1cc(OC)cc([C@@H]2c3sc4ccccc4c3C[C@H]3C(=O)N(C)C(=S)N23)c1` (racemic) [Compound 2, (3aSR,10RS)-10-(3,5-Dimethoxy-phenyl)-2-methyl-1-thioxo-1,2,4,10-tetrahydro-3aH-9-thia-2,10a-diaza-cyclopenta[b]fluoren-3-one] came in with a melting point of 247 to 249 °C. For the same compound, the IC50 in data set [1] is more than 85 µM. On the same counts, the results for `COc1cc(OC)cc([C@@H]2c3[nH]c4cc(F)ccc4c3C[C@H]3C(=O)N(C)C(=S)N23)c1` (racemic) [Compound 6, (3aSR,10RS)-10-(3,5-Dimethoxy-phenyl)-7-fluoro-2-methyl-1-thioxo-1,2,3a,4,9,10-hexahydro-2,9,10a-triaza-cyclopenta[b]fluoren-3-one] are 199 to 202 °C and more than 100 µM. Taken in the same sequence, the figures for `COc1cc(OC)cc([C@@H]2c3[nH]c4cccc(C)c4c3C[C@H]3C(=O)N(C)C(=S)N23)c1` (racemic) [Compound 7, (3aSR,10RS)-10-(3,5-Dimethoxy-phenyl)-2,5-dimethyl-1-thioxo-1,2,3a,4,9,10-hexahydro-2,9,10a-triaza-cyclopenta[b]fluoren-3-one] were 279 to 291 °C and more than 100 µM. The compound `COc1cc(OC)cc([C@@H]2c3[nH]c4cc(C)ccc4c3C[C@H]3C(=O)N(C)C(=S)N23)c1` (racemic) [Compound 8, (3aSR,10RS)-10-(3,5-Dimethoxy-phenyl)-2,7-dimethyl-1-thioxo-1,2,3a,4,9,10-hexahydro-2,9,10a-triaza-cyclopenta[b]fluoren-3-one] showed a melting point of 216 to 218 °C. Moreover, in data set [1], the IC50 is more than 100 µM. `COc1cc(OC)cc([C@@H]2c3[nH]c4ccccc4c3C[C@H]3C(=O)N(C)C(=S)N23)c1` [Compound 1, (3aS,10R)-10-(3,5-Dimethoxy-phenyl)-2-methyl-1-thioxo-1,2,3a,4,9,10-hexahydro-2,9,10a-triaza-cyclopenta[b]fluoren-3-one]: the IC50 in data set [1] was more than 100 µM. As for `CN1C(=O)[C@@H]2Cc3c([nH]c4ccccc34)[C@@H](c3cc(Cl)cc(Cl)c3)N2C1=S` [Compound 3, (3aS,10R)-10-(3,5-Dichloro-phenyl)-2-methyl-1-thioxo-1,2,3a,4,9,10-hexahydro-2,9,10a-triaza-cyclopenta[b]fluoren-3-one], the melting point stood at 277 °C. The IC50 in data set [1] was more than 100 µM.

`CN1C(=O)[C@@H]2Cc3c([nH]c4ccccc34)[C@@H](c3cc(F)cc(F)c3)N2C1=S` [Compound 4, (3aS,10R)-10-(3,5-Difluoro-phenyl)-2-methyl-1-thioxo-1,2,3a,4,9,10-hexahydro-2,9,10a-triaza-cyclopenta[b]fluoren-3-one] registered a melting point of 308 to 310 °C. For the same compound, the concentration for half-maximal inhibition (IC50) in data set [1] is more than 100 µM.

As to `Cc1cc(C)cc([C@@H]2c3[nH]c4ccccc4c3C[C@H]3C(=O)N(C)C(=S)N23)c1` [Compound 5, (3aS,10R)-10-(3,5-Dimethyl-phenyl)-2-methyl-1-thioxo-1,2,3a,4,9,10-hexahydro-2,9,10a-triaza-cyclopenta[b]fluoren-3-one], the melting point was in the range of 252 to 257 °C. Further, in data set [1], the 50% inhibitory concentration (IC50) is more than 100 µM.
